Measured values as given in publication PMC8154525 (Journal of the American Chemical Society, 2021).

System: aminopeptidase M (Ap)
Assay: Ap-catalyzed cleavage of H-Arg-AMC
Type: biochemical
Conditions: read-out: KM (Ap-catalyzed cleavage); substrate of aminopeptidase M

Km: 5 mM
Structure (SMILES): Cc1cc(=O)oc2cc(NC(=O)[C@@H](N)CCCN=C(N)N)ccc12 [H-Arg-AMC]
